Results taken from PMC9775191, “A Subset Screen of the Compounds Australia Scaffold Library Identifies 7-Acylaminodibenzoxazepinones as Potent and Selective Hits for Anti-Giardia Drug Discovery” (Biomedicines, 2022).

Test system: G. duodenalis BRIS/91/HEPU/1279
Experiment: Primary Giardia screen at 10 µM (live-cell imaging, automated counting)
Assay type: cell-based, Giardia duodenalis
Conditions: 48 h, first singlicate assay
Description: Each compound was assessed in singlicate, at a final concentration of 10 μM (0.4 μL of a 5 mM stock; diluted to a final volume of 200 μL in culture medium; 0.2% DMSO). […] Plates were incubated in sealed chambers filled with 3% O2, 5% CO2 in N2 and growth was assessed at 24 and 48 h using live cell imaging and automated counting as previously described. Growth inhibition was calculated by subtracting media only background counts and determining percentage growth relative to vehicle (0.2% DMSO) controls. The reliability of these assays was assessed by calculating Z’ factors for each plate as previously described.

| SMILES | % Inhibition n=1 48h [%] |
| --- | --- |
| O=c1onc(-c2cccnc2)n1Cc1noc(C2CC2)n1 [SN00772712] | 0.0 |
| CCc1nccn1CC1CCCN1 (stereo not shown) [SN00772783] | 0.0 |
| O=C(Nc1cccc(-c2noc(C3CCOCC3)n2)c1)C1CC1 [SN00772921] | 0.0 |
| Cc1cccc(-c2noc(CN3CC(n4cc(C)cn4)C3)n2)c1 [SN00772979] | 6.1 |
| COc1ccc2c(c1)CCCN(C(=O)c1nnc3ccccc3c1N)C2 [SN00773025] | 10.7 |
| O=C(Cc1noc(-c2ccoc2)n1)NC1CCCCC1 [SN00773041] | 3.1 |
| c1ccc(-c2nnc(CN3CCn4c(nnc4C4CC4)C3)o2)cc1 [SN00773167] | 0.0 |
| COc1ccc(NC(=O)N2CCN(CC3CCCCN3C)CC2)cn1 (stereo not shown) [SN00773239] | 0.0 |
| O=C(C1CC1)N1CCCCCC1C1CCN(c2nccc(C(F)(F)F)n2)CC1 (stereo not shown) [SN00773266] | 15.0 |
| O=C(NC(c1ccccc1)C1CC1)c1ccc2c(c1)S(=O)(=O)Nc1ncnn1-2 (stereo not shown) [SN00773273] | 0.0 |
| NC(=O)c1cnc(N2CCC3(CC2)CC3c2nc(-c3cccc(Cl)c3)no2)c(Cl)c1 (stereo not shown) [SN00773335] | 0.0 |
| O=C(NCc1ccco1)N1CC2C3CCC(C3)C21 (stereo not shown) [SN00773389] | 2.6 |
| CCCn1nc2c(cc1=O)CN(Cc1nc(-c3ccco3)no1)CC2 [SN00773497] | 0.0 |
| CC(C)n1nc2c(cc1=O)CN(Cc1nc(-c3ccoc3)no1)CC2 [SN00773517] | 10.7 |
| Cc1cc(C(=O)COC(=O)C2(O)CCCCC2)c(C)n1-c1c(C)n(C)n(-c2ccccc2)c1=O [SN00773547] | 1.1 |
| Cc1ccccc1Nc1nc(N)nc(CN2C(=O)NC(C)(c3cccc4ccccc34)C2=O)n1 (stereo not shown) [SN00773551] | 21.3 |
| C=CCn1c(SCC(=O)N2CCCCC2)nc2scc(-c3ccco3)c2c1=O [SN00773666] | 5.6 |

| SMILES | % Inhibition n=1 48h [%] |
| --- | --- |
| CCn1c(CN2Cc3ccccc3C[C@H]2C(N)=O)nc2cc(S(=O)(=O)N3CCCCC3)ccc21 [SN00773766] | 10.0 |
| CC(=O)N1CCN(Cc2nc3cc(Cl)ccc3n2C)CC1 [SN00773871] | 0.0 |
| O=C(Cn1c(=O)c2c(ncn2C2CCCC2)n(Cc2ccccc2)c1=O)Nc1cc(Cl)ccc1F [SN00773912] | 0.0 |
| O=c1ccccn1Cc1nnc(-c2ccc(Br)o2)o1 [SN00773952] | 8.9 |
| COc1ccc(-c2nnc(CN3C(=O)NC(C)(CCC(C)C)C3=O)o2)cc1 (stereo not shown) [SN00773994] | 0.0 |
| Cc1ccc(C2(C)NC(=O)N(Cc3ncc(-c4ccccc4)o3)C2=O)cc1 (stereo not shown) [SN00774002] | 0.0 |
| Cc1noc(CN2C(=O)NC(C)(c3ccccc3)C2=O)n1 (stereo not shown) [SN00774045] | 0.0 |
| Cn1cc(CN2C(=O)NC(C)(c3ccco3)C2=O)cn1 (stereo not shown) [SN00774074] | 16.2 |
| Cc1nn(Cc2csc(-c3ccsc3)n2)c(C)c1S(=O)(=O)N1CCc2ccccc21 [SN00774089] | 7.1 |
| O=C(Nc1cnn(Cc2cn3ccccc3n2)c1)Nc1ccc(F)cc1F [SN00774154] | 7.2 |
| O=C1C(=O)N(C2CCCC2)C(=O)N1Cc1nc(-c2ccsc2)no1 [SN00774178] | 0.0 |
| CCOc1ccccc1N1C(=O)C(=O)N(Cc2nc(C)no2)C1=O [SN00774186] | 14.0 |
| Cc1nn(C)c2sc(C(=O)N3CCN(S(=O)(=O)c4ccc(Br)cc4)CC3)cc12 [SN00774390] | 10.6 |
| Cc1nn(Cc2ccccc2)c2sc(C(=O)N3CCN(C(=O)N4CCCCC4)CC3)cc12 [SN00774391] | 14.0 |
| CC(=O)NC1CCCN(C(=O)c2cc3c(C)nn(Cc4ccc(F)cc4)c3s2)C1 (stereo not shown) [SN00774438] | 0.0 |
| CC(C)CN1CC(C(=O)N2CCC(Nc3cccnn3)CC2)CC1=O (stereo not shown) [SN00774466] | 0.0 |
| CCOC(=O)C1CCN(C(=O)c2ccc3c(c2)C(=O)N(c2ccccc2C)C3=O)CC1 [SN00774484] | 0.0 |
